Experimental data as given in patent US7169787B2, “7-azaindoles, use thereof as phosphodiesterase 4 inhibitors and method for producing the same” (Elbion AG, priority 2000, dated 2007).

Experiments:
Lewis Rats = assay: Inhibition of the lipopolysaccharide (LPS)-induced lung neutrophilia; assay type: in vivo, rat; conditions: 1 mg/kg p.o., 2 h before LPS provocation; BAL 6 h after provocation
Experimental: The inhibition of pulmonary neutrophil infiltration by the inventive substances is tested on male Lewis Rats (250–350 g). On the day of the experiments, the animals are placed individually in open 1 L Plexiglas boxes, which are connected to a head-nose exposure device. The animals are exposed to an aerosol of a lipopolysaccharide suspension (100 μg LPS/mL of 0.1% hydroxylamine solution) in PBS (LPS provocation). The LPS/hydroxylamine aerosol is nebulized by a nebulizer (Bird Micronebulizer, Palm Springs Calif., USA), which is operated with compressed air (0.2 MPa). The exposure time is 40 minutes, normal controls being nebulized also for 40 minutes with an aerosol of 0.1% hydroxylamine solution in PBS.
Six hours after the LPS provocation, there is a maximum, massive migration of neutrophil granulocytes into the lungs of the animals. At this time, the animals are anesthetized with an excess of ethyl urethane (1.5 g/kg of body weight i.p.) and a bronchoalveolar lavage (BAL) with 3×4 mL of Hank's balance solution is carried out. The total cell count and the number of neutrophil granulocytes of the pooled BAL liquid are subsequently determined with an automatic cell differentiation instrument (Bayer Diagnostics Technicon HIE). For each animal, the neutrophiles (NEUTRO) in the BAL are calculated in millions/animal: NEUTRO/μl×BAL recovery (mL)=NEUTRO/animal.
For each test, 2 control groups were also run (nebulization with 0.1% hydroxylamine solution in PBS and nebulization with 100 μg LPS/mL of 0.1% hydroxylamine solution in PBS).
The percentage inhibition of the neutrophilia of the experimental group, treated with substance, was calculated according to the following formula: {((LPSC−SC)−(LPSD−SC))/(LPSC−SC)}×100%=% inhibition SC=vehicle-treated control group challenged with 0.1% hydroxylamine solution; LPSC=vehicle-treated control group challenged with LPS (100 μg/mL 0.1% hydroxylamine solution); LPSD=substance-treated experimental group challenged with LPS (100 μg/mL 0.1% hydroxylamine solution) […]

[1] = tested on: actively sensitized Brown Norway Rats; assay: Inhibition of the late phase eosinophilia 48 hours after inhalative ovalbumin challenge; assay type: in vivo, rat; conditions: 2 h before allergen challenge, BAL 48 h after challenge
Experimental: The inhibition of pulmonary eosinophilia infiltration by the inventive substances is tested on male Brown Norway Rats (200–250 g), which had been actively sensitized against ovalbumin (OVA). The rats were sensitized by subcutaneous injections of a suspension of 10 μg OVA together with 20 mg of aluminum hydroxide as adjuvant in 0.5 mL of physiological salt solution per animal on days 1, 14 and 21. In addition, the animals at the same time received Bordetella pertussis vaccine dilution injected 0.25 mL i.p. per animal. On the 28th day of the experiment, the animals are placed individually in open 1 L Plexiglas boxes, which are connected to a head-nose exposure device. The animals are exposed to an aerosol of 1.0% ovalbumin suspension (allergen challenge). The ovalbumin aerosol is produced by a nebulizer (Bird Micronebulizer, Palm Springs Calif., USA), which is operated with compressed air (0.2 MPa). The exposure time is one hour, normal controls being nebulized also for one hour with an aerosol of 0.9% salt solution.
Forty-eight hours after the allergen challenge, there is a massive migration of eosinophilic granulocytes into the lungs of the animals. At this time, the animals are anesthetized with an excess of ethyl urethane (1.5 g/kg of body weight i.p.) and a bronchoalveolar lavage (BAL) with 3×4 mL of Hank's balance solution is carried out. The total cell count and the number of eosinophilic granulocytes of the pooled BAL liquid are subsequently determined with an automatic cell differentiation instrument (Bayer Diagnostics Technicon HIE). For each animal, the eosinophiles (EOS) in the BAL are calculated in millions/animal: EOS/μl×BAL recovery (mL)=EOS/animal.
For each test, 2 control groups were run (nebulization with physiological salt solution and nebulization with OVA solution).
The percentage inhibition of the eosinophilia of the experimental group, treated with substance, was calculated according to the following formula: {((OVAC−SC)−(OVAD−SC))/(OVAC−SC)}×100%=% inhibition (SC=vehicle-treated control group challenged with 0.9% salt solution; OVAC=vehicle-treated control group challenged with 1% ovalbumin suspension; OVAD=substance-treated experimental group challenged with 1% ovalbumin suspension)
The test substances are applied i.p. or orally as a suspension in 10% polyethylene glycol 300 and 0.5% 5-hydroxyethylcellulose for two hours before the allergen challenge. The control groups are treated with the vehicle in accordance with the application form of the test substance.

[2] = tested on: release of TNFα from cells of nasal polyps; assay: Inhibition of the release of TNFα from cells of nasal polyps (anti-IgE stimulated, ELISA); assay type: cell-based; conditions: Homo sapiens, anti-IgE stimulated nasal polyp cells
Experimental: The experimental arrangement corresponds essentially to the method described by Campbell, A. M. and J. Bousquet (Anti-allergic activity of H1-blockers, Int. Arch. Allergy Immunol., 1993, 101, 308–310). Nasal polyps form the starting material (material from patients, who had been subjected to a surgical treatment).
The tissue is washed with RPMI 1640 and subsequently digested with protease (2.0 mg/mL), collagenase (1.5 mg/mL), hyaluronidase (0.75 mg/mL), and DNAse (0.05 mg/mL) for two hours at 37° C. (1 g of tissue and 4 mL of RPMI 1640 with enzymes). The cells obtained, a mixture of epithelial cells, monocytes, macrophages, lymphocytes, fibroblasts and granulocytes, are filtered and washed by being centrifuged repeatedly in culture solution and sensitized passively by the addition of human IgE and the cell suspension is brought to a concentration of 2 million cells/mL in RPMI 1640 (supplemented by antibiotics, 10% fetal calf serum, 2 mM of glutamine and 25 mM of Hepes). This suspension is distributed on six-well cell culture plates (1 ml/well). The cells are pre-incubated for 30 minutes with the test substances in different final concentrations and subsequently stimulated to release TNFα by the addition of anti-IgE (7.2 μg/mL). The maximum release into the culture medium takes place after about 18 hours. During this period, the cells are incubated at 37° C. and 5% carbon dioxide. The culture medium (supernatant) is recovered by centrifuging (five minutes at 4000 rpm) and kept at −70° C. until the cytokin is determined. The TNFα in the supernatant is determined with so-called sandwich ELISAs (basic material Pharmingen), with which cytokin concentrations ranging from 30 to 1000 pg/mL can be determined.
Cells, not stimulated with anti IgE, hardly produce any TNFα; on the other hand, stimulated cells secrete large amounts of TNFα, which can be reduced, for example, by PDE 4 inhibitors as a function of the dose. From the percentage inhibition (TNFα release by the cells, stimulated with anti IgE=100%) of the substances tested at different concentrations, the IC50 (concentration at 50% inhibition) is calculated.

Row | Compound | Inhibition of neutrophilia (table titled Inhibition of Eosinophilia) (Lewis Rats) [%] | Inhibition of Eosinophilia ([1]; 10 mg/kg i.p.) [%] | Inhibition of Eosinophilia ([1]; 10 mg/kg p.o.) [%] | inhibition at 1 µM ([2]; concentration 1.0 μmole/L) [%] | inhibition at 0.3 µM ([2]; concentration 0.3 μmole/L) [%]
1 | CC(C)Cn1cc(C(=O)C(=O)Nc2c(Cl)cncc2Cl)c2cccnc21 [Example 27] | 52 | 50 | 70 | 91 | 
2 | O=C(Nc1c(Cl)cncc1Cl)C(=O)c1cn(Cc2ccc(F)cc2)c2ncccc12 [Example 14] | 80 | 62 | 59 |  | 92
